Test system: serum cytokine/chemokine/growth factor/ligands of ALS patient
Assay: Serum Luminex, before and after NAC treatment
Type: in vivo, human
Experimental: (§1) Serum Luminex. Serum from patients were used to determine the levels of cytokine/chemokine/growth factor/ligands secretion using multiplex luminex assay. Scatter plot was prepared using the levels of cytokine/chemokine/growth factor/ligands in serum obtained at different dates from patients as compared to controls.
Serum Luminex. Serum from patients were used to determine the levels of cytokine/chemokine/growth factor/ligands secretion using multiplex luminex assay.
as §1

[1] = JC sera Apr. 30, 2020 (NAC infusion)
[2] = JC sera Jun. 22, 2020 (NAC infusion)
[3] = JC sera Jun. 24, 2020 (NAC infusion)
[4] = JC sera May 7, 2020 (NAC infusion)

## CC(=O)N[C@@H](CS)C(=O)O [NAC, N-Acetyl-Cysteine]
JC sera Apr. 30, 2020
  IL-5: 2 pg/mL
  IL-7: 6.25 pg/mL
  IL-8: 4.28 pg/mL
  IL-21: 0.86 pg/mL
  IL-23: 138.55 pg/mL
  MIP-1a: 11.35 pg/mL
  MIP-1b: 17.78 pg/mL
  TNFa: 8.46 pg/mL
[1]
  Franktalkine: 35.49 pg/mL
  GM-CSF: 59.71 pg/mL
  IFNg: 9.14 pg/mL
  IL-1b: 1.03 pg/mL
  IL-10: 5.71 pg/mL
  IL-12p70: 2.32 pg/mL
  ITAC: 14.07 pg/mL
  MIP-3a: 8.17 pg/mL
JC sera Jun. 22, 2020
  IL-2: 0.04 pg/mL
  IL-4: 15.17 pg/mL
  IL-5: 2.44 pg/mL
  IL-6: 3.33 pg/mL
  IL-7: 7.25 pg/mL
  IL-8: 5.21 pg/mL
  IL-21: 0.86 pg/mL
  IL-23: 158.41 pg/mL
  MIP-1a: 12.15 pg/mL
  MIP-1b: 24.21 pg/mL
  TNFa: 9.2 pg/mL
[2]
  Franktalkine: 35.49 pg/mL
  GM-CSF: 50.3 pg/mL
  IFNg: 10.42 pg/mL
  IL-1b: 0.91 pg/mL
  IL-10: 8.54 pg/mL
  IL-12p70: 2.32 pg/mL
  IL-13: 5.03 pg/mL
  IL-17A: 6.86 pg/mL
  ITAC: 13.07 pg/mL
  MIP-3a: 10.65 pg/mL
JC sera Jun. 24, 2020
  IL-2: 0.17 pg/mL
  IL-4: 10.14 pg/mL
  IL-5: 2.1 pg/mL
  IL-7: 5.13 pg/mL
  IL-8: 4.47 pg/mL
  IL-21: 0.62 pg/mL
  IL-23: 106.21 pg/mL
  MIP-1a: 12.15 pg/mL
  MIP-1b: 27.78 pg/mL
  TNFa: 8.82 pg/mL
[3]
  Franktalkine: 35.11 pg/mL
  GM-CSF: 111.4 pg/mL
  IFNg: 4.58 pg/mL
  IL-1b: 0.77 pg/mL
  IL-10: 23.69 pg/mL
  IL-12p70: 1.64 pg/mL
  IL-13: 3.95 pg/mL
  IL-17A: 2.46 pg/mL
  ITAC: 10.44 pg/mL
  MIP-3a: 8.55 pg/mL
JC sera May 7, 2020
  IL-2: 0.21 pg/mL
  IL-4: 7.5 pg/mL
  IL-5: 1.77 pg/mL
  IL-6: 1.37 pg/mL
  IL-7: 4.06 pg/mL
  IL-8: 3.39 pg/mL
  IL-21: 0.62 pg/mL
  IL-23: 116.26 pg/mL
  MIP-1a: 10.39 pg/mL
  MIP-1b: 16.67 pg/mL
  TNFa: 7.45 pg/mL
[4]
  Franktalkine: 33.33 pg/mL
  GM-CSF: 58.44 pg/mL
  IFNg: 4.81 pg/mL
  IL-1b: 0.72 pg/mL
  IL-10: 6.63 pg/mL
  IL-12p70: 1.6 pg/mL
  IL-13: 3.99 pg/mL
